Results as given in ChEMBL document CHEMBL1128122, “Synthesis of 1,25-dihydroxy-22-thiavitamin D3 and related analogs” (1995).

System: HL-60
Assay: In vitro differentiation-inducing activity of human myeloid leukemia cells (HL-60) into macrophages; compound showed potent activity
Type: functional, cell-based

## C=C1/C(=C\C=C2/CCC[C@@]3(C)C2CCC3[C@@H](C)SCCC(O)(CC)CC)C[C@@H](O)C[C@@H]1O (stereo partly specified)
  Activity: compound showed potent activity
